Experimental findings from patent publication US20230292747A1, “Composition for use in agriculture” (Bayer Aktiengesellschaft, priority 2020, published 2023) are described below.

For series [1], the system named is Aphis gossypii. Kind of series: Aphid spray bioassay on infected cotton plants, insect mortality on day seven post treatment. Format: in vivo. The protocol: (§1) • The laboratory colonies of Myzus persicae and Aphis gossypii were reared on pea and cotton plants under controlled conditions 25±1° C. and a 55±5% relative humidity. • Experiments were conducted at RT using pepper (Capsicum annuum) for Myzus persicae and cotton (Gossypium herbaceum) for Aphis gossypii.
(§2) • Soft water (Milli-Q water), self made hard water and very hard water collected from the field (sample A) were used in the assays. Self made hard water was prepared by adding magnesium sulfate to the tap water (440 mg MgSO4/1 L tap water) to achieve 25° d (˜445 ppm). […] The water softeners were used in concentrations described in Table 2. First, the softeners were added to Sample A, self made hard and soft water samples and the water hardness was determined with test strips (see Table 3). Next, Flipper (0,5%, corresponding to a fatty acid derivative content of 2.4 g/l) was mixed to the different water plus softener solutions and subsequently the samples were sprayed on plants infected with aphids. Additionally, another biological product based on fatty acid derivatives (product Neudosan® Neu available from Certis Europe B.V.) was tested in combination with the softener Slox and a softener based on TSCA(in the following named “Coded” (for concentrations see Table 2) in hard vs soft water against aphids as described above. The efficacy of Neudosan (0,5% and 1% corresponding to a fatty acid derivative content of 2.575 g/l and 5,15 g/1) was compared to the efficacy of Flipper (0,5% and 1% corresponding to a fatty acid derivative content of 2.4 g/l and 4,8 g/1) with and without softeners (see Table 5). • Four single-leaf pepper or cotton plants infected with mixed population of Myzus persicae or Aphis gossypii were used in the bioassays. The infected plants were sprayed with the prepared solutions by using an automatic spraying system machine with integrated residue drying and afterwards incubated in a greenhouse chamber under controlled conditions (25±1° C. and 55±5% RH).
(§3) The tests were conducted according to the protocol described in Example 1.

Series [2] can be described thus: Measurement of water hardness before and after adding softeners (AQUADUR test strips). Format: physicochemical. The protocol: as §2
The test system of series [3] is Myzus persicae. Put plainly: Aphid spray bioassay on infected pepper plants, insect mortality on day seven post treatment. Format: in vivo. The conditions noted are these: day 7. On the procedure: as §1, §2, §3
Series [4] deals with pepper (Capsicum annuum). It counts as in vivo. The conditions noted are these: pepper plants.
Series [5] has as its system cotton (Gossypium herbaceum). The conditions noted are these: cotton plants. On the procedure:
as §1
• Soft water (Milli-Q water), self made hard water and very hard water collected from the field (sample A) were used in the assays. Self made hard water was prepared by adding magnesium sulfate to the tap water (440 mg MgSO4/1 L tap water) to achieve 25° d (˜445 ppm). […] The water softeners were used in concentrations described in Table 2. First, the softeners were added to Sample A, self made hard and soft water samples and the water hardness was determined with test strips (see Table 3). Next, Flipper (0,5%, corresponding to a fatty acid derivative content of 2.4 g/l) was mixed to the different water plus softener solutions and subsequently the samples were sprayed on plants infected with aphids. […]

Setting [6] is: 0.5% Flipper + named softener (% printed in row) in self made hard water, cotton, day 7.
The mark [7] stands for this setting: field collected water Sample A (>25 °D before), softener at % printed in row.
[8] abbreviates: field collected water Sample A (>445 ppm before), converted 1 °D = 17.8 ppm.
Setting [9] is: self made hard water (25 °D before), softener at % printed in row.
The mark [10] stands for this setting: self made hard water (445 ppm before), converted 1 °D = 17.8 ppm.
The mark [11] stands for this setting: soft water (0 ppm before), converted 1 °D = 17.8 ppm.
Where [12] appears, read: soft water (Milli-Q, 0 °D before), softener at % printed in row.
Where [13] appears, read: 0.5% Flipper + named softener (% printed in row) in self made hard water.
The mark [14] stands for this setting: 0.5% Flipper + named softener (% printed in row) in soft water.
Setting [15] is: 0.5% Flipper + named softener in self made hard water.
Setting [16] is: 0.5% Flipper + named softener in soft water.

Read-outs that look alike come from different tables or passages of the source.

`O=C([O-])CC(O)(CC(=O)[O-])C(=O)[O-].[Na+].[Na+].[Na+]` [TSCA, Trisodium citric acid]: the “Efficacy of 0.5% Flipper against Aphis gossypii, after adding softeners” value in series [1] (setting [6]) was 55%; in series [1] (0.5% Flipper + named softener (% printed in row) in soft water, cotton, day 7), 70%. The “Water hardness after adding softener” value is listed as 20 °D in series [2] (setting [7]); 356 ppm in series [2] (setting [8]); 20 °D in series [2] (setting [9]); 356 ppm in series [2] (setting [10]); 0 ppm in series [2] (setting [11]); 0 °D in series [2] (setting [12]). Also, the “Efficacy of 0.5% Flipper against Myzus persicae, after adding softeners” value in series [3] (setting [13]) is reported as 55%; in series [3] (setting [14]), 67.5%.

With `O=C(O)CN(CCN(CC(=O)O)CC(=O)O)CC(=O)O` [EDTA, Ethylene diamine tetraacetate], the PTX entry in series [4] (setting [15]) is “strong”; in series [4] (setting [16]) it was “Strong”; in series [5] (setting [15]), “slight”; in series [5] (setting [16]), 72.5 (slight. Further, the “Efficacy of 0.5% Flipper against Aphis gossypii, after adding softeners” value is 65% in series [1] (setting [6]) and 72.5 (slight % in series [1] (in vivo). Besides, the “Water hardness after adding softener” value in series [2] (setting [7]) worked out at 0 °D; in series [2] (setting [8]), 0 ppm; in series [2] (setting [9]), 0 °D; in series [2] (setting [10]), 0 ppm; in series [2] (setting [11]), 0 ppm; in series [2] (setting [12]), 0 °D. In addition, the “Efficacy of 0.5% Flipper against Myzus persicae, after adding softeners” value in series [3] (setting [13]) stood at 81.25%; in series [3] (setting [14]) it was 97%.
